Experimental data from patent US12540129B2, “KIF18A inhibitors” (AMGEN INC., priority 2019, dated 2026).

Target: T1, Recombinant human KIF18A (1-467 His-tagged) protein (Homo sapiens, UniProt Q8NI77)
T1 construct: Recombinant human KIF18A (1-467 His-tagged) protein; His; made in house
Test: KIF18A Enzyme Assay: microtubule-stimulated ATPase activity (ADP-Glo)
Type: biochemical
Settings: 30 nM KIF18A, 75 μM ATP
Procedure, shortened: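 ADP-Glo luminescence reports ADP produced by His-tagged human KIF18A motor domain (1-467, insect-cell expressed) with microtubules and ATP.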

T1 sequence (Q8NI77 1-467): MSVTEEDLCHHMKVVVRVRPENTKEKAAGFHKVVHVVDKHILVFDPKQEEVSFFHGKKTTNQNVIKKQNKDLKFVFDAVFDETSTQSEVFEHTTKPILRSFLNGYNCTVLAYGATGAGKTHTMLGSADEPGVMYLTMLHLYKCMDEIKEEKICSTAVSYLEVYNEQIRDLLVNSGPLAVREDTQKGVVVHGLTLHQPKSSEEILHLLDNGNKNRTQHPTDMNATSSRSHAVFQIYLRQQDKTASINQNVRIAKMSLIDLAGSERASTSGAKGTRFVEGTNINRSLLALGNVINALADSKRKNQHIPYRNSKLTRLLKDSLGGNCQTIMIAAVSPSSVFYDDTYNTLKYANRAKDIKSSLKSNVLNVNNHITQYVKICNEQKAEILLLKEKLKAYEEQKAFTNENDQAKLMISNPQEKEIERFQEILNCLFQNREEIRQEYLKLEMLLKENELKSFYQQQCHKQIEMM
T1 sequence (P02550 whole entry partner): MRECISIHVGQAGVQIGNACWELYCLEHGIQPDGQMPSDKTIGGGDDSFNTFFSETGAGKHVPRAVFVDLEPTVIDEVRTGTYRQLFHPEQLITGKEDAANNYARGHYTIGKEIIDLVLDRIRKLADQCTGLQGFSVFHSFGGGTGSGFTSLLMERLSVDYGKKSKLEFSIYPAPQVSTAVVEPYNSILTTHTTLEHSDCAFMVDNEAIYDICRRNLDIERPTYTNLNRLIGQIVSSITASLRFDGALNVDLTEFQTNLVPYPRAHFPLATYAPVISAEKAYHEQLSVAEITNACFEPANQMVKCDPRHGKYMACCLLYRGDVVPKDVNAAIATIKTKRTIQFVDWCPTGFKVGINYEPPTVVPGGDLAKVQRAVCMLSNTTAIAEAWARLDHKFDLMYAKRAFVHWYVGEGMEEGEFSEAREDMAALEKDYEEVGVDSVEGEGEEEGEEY
T1 sequence (P02554 whole entry partner): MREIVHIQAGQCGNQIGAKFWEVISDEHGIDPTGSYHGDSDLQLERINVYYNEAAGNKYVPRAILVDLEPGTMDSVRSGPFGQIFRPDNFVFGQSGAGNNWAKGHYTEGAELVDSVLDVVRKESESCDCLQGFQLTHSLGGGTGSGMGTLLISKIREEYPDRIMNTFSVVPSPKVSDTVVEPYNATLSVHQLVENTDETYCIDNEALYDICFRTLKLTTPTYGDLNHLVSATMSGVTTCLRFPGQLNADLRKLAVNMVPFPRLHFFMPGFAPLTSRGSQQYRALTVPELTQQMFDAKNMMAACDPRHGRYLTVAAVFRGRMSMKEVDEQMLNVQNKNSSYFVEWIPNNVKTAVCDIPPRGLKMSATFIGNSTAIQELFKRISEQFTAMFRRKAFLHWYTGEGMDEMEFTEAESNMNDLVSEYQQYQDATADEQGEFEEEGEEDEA

Structure (SMILES)	IC50 [nM]
Cn1nccc1-c1cccc(NC(=O)c2ccc(NC(C)(C)CO)nc2N2CCC3(CC2)CC3)c1 [Example 111-8, 6-((1-hydroxy-2-methylpropan-2-yl)amino)-N-(3-(1-methyl-1H-pyrazol-5-yl)phenyl)-2-(6-azaspiro[2.5]octan-6-yl)nicotinamide]	542
O=C(Nc1cccc(S(=O)(=O)C2CCCC2)c1)c1ccc(NC(CO)CO)nc1N1CCC2(CC1)CC2 [Example 106, N-(3-(Cyclopentylsulfonyl)phenyl)-6-((1,3-dihydroxypropan-2-yl)amino)-2-(6-azaspiro[2.5]octan-6-yl)nicotinamide]	54
CC(C)(C)NS(=O)(=O)c1cccc(NC(=O)c2ccc(NC(C)(C)CCO)nc2N2CCC3(CC2)CC3)c1 [Example 103-28, N-(3-(N-(tert-butyl)sulfamoyl)phenyl)-6-((4-hydroxy-2-methylbutan-2-yl)amino)-2-(6-azaspiro[2.5]octan-6-yl)nicotinamide]	80
CC(C)(C)NS(=O)(=O)c1cccc(NC(=O)c2ccc(N3CCC3)nc2N2CCC3(CC2)CC3)c1 [Example 102-10, 6-(azetidin-1-yl)-N-(3-(N-(tert-butyl)sulfamoyl)phenyl)-2-(6-azaspiro[2.5]octan-6-yl)nicotinamide]	118
O=C(Nc1cccc(S(=O)(=O)N2CCC(F)(F)CC2)c1)c1cccnc1N1CCC2(CCC2)CC1 [Example 100-6, N-(3-((4,4-difluoropiperidin-1-yl)sulfonyl)phenyl)-2-(7-azaspiro[3.5]nonan-7-yl)nicotinamide]	90
O=C(Nc1cccc(S(=O)(=O)C2CCCC2)c1F)c1cccnc1N1CCC2(CC1)CC2 [Example 100-21, N-(3-(cyclopentylsulfonyl)-2-fluorophenyl)-2-(6-azaspiro[2.5]octan-6-yl)nicotinamide]	760
Cc1cc(NC(=O)c2ccc(NC(C)(C)CO)nc2N2CCC3(CC2)CC3)cc(S(=O)(=O)NC(C)(C)C)c1 [Example 105-18, N-(3-(N-(tert-butyl)sulfamoyl)-5-methylphenyl)-6-((1-hydroxy-2-methylpropan-2-yl)amino)-2-(6-azaspiro[2.5]octan-6-yl)nicotinamide]	122
O=C(Nc1ccc(Br)c(C(=O)N2CCCC(F)(F)C2)c1)c1ccncc1N1CCC2(CC1)CC2 [Example 115-1, N-(4-bromo-3-(3,3-difluoropiperidine-1-carbonyl)phenyl)-3-(6-azaspiro[2.5]octan-6-yl)isonicotinamide]	577
CC(C)(CF)NS(=O)(=O)c1cccc(NC(=O)c2cccnc2N2CCC3(CC2)CC3)c1 [Example 101-8, N-(3-(N-(1-fluoro-2-methylpropan-2-yl)sulfamoyl)phenyl)-2-(6-azaspiro[2.5]octan-6-yl)nicotinamide]	279
O=C(Nc1cccc(S(=O)(=O)N2CCC(F)(F)C2)c1)c1cccnc1N1CCC2(CC1)CC2 [Example 101-6, N-(3-((3,3-difluoropyrrolidin-1-yl)sulfonyl)phenyl)-2-(6-azaspiro[2.5]octan-6-yl)nicotinamide]	581
CC(CO)(CO)Nc1ccc(C(=O)Nc2cccc(S(=O)(=O)C3CCCC3)c2)c(N2CCC3(CC2)CC3)n1 [Example 106-3, N-(3-(cyclopentylsulfonyl)phenyl)-6-((1,3-dihydroxy-2-methylpropan-2-yl)amino)-2-(6-azaspiro[2.5]octan-6-yl)nicotinamide]	39
O=C(Nc1cccc(S(=O)(=O)C2CCCC2)c1)c1ccncc1N1CCC2(CC1)CC2(F)F [Example 114-2, N-(3-(cyclopentylsulfonyl)phenyl)-3-(1,1-difluoro-6-azaspiro[2.5]octan-6-yl)isonicotinamide]	735
CC(C)(C)NS(=O)(=O)c1cccc(NC(=O)c2ccc(N3CCCC3(C)C)nc2N2CCC3(CC2)CC3)c1 [Example 102-3, N-(3-(N-(tert-butyl)sulfamoyl)phenyl)-6-(2,2-dimethylpyrrolidin-1-yl)-2-(6-azaspiro[2.5]octan-6-yl)nicotinamide]	342
CC(C)(CO)Nc1ccc(C(=O)Nc2cccc(S(=O)(=O)NC3(C)CCC3)c2)c(N2CCC3(CC2)CC3)n1 [Example 105-13, 6-((1-hydroxy-2-methylpropan-2-yl)amino)-N-(3-(N-(1-methylcyclobutyl)sulfamoyl)phenyl)-2-(6-azaspiro[2.5]octan-6-yl)nicotinamide]	56
CC(C)(C)NS(=O)(=O)c1cccc(NC(=O)c2ccc(N3C[C@H]4C[C@H]4C3)nc2N2CCC3(CC2)CC3)c1 [Example 102-5]	191
COc1ccc(C(=O)Nc2cccc(S(=O)(=O)C3CCCC3)c2)c(N2CCC3(CC2)CC3)n1 [Example 104-1, N-(3-(cyclopentylsulfonyl)phenyl)-6-methoxy-2-(6-azaspiro[2.5]octan-6-yl)nicotinamide]	261
O=C(Nc1cccc(S(=O)(=O)NC2CC2)c1)c1ccc(NC2(CO)CC2)nc1N1CCC2(CC1)CC2 [Example 105-15, N-(3-(N-cyclopropylsulfamoyl)phenyl)-6-((1-(hydroxymethyl)cyclopropyl)amino)-2-(6-azaspiro[2.5]octan-6-yl)nicotinamide]	800
CC(C)(C)NS(=O)(=O)c1cccc(NC(=O)c2ccc(NC3(C)COC3)nc2N2CCC3(CC2)CC3)c1 [Example 102-26, N-(3-(N-(tert-butyl)sulfamoyl)phenyl)-6-((3-methyloxetan-3-yl)amino)-2-(6-azaspiro[2.5]octan-6-yl)nicotinamide]	56
CC(C)(C)NS(=O)(=O)c1cccc(NC(=O)c2ccc(NC(CO)CO)nc2N2CCC3(CC2)CC3)c1 [Example 106-2, N-(3-(N-(tert-butyl)sulfamoyl)phenyl)-6-((1,3-dihydroxypropan-2-yl)amino)-2-(6-azaspiro[2.5]octan-6-yl)nicotinamide]	109
CC(C)NS(=O)(=O)c1cccc(NC(=O)c2cccnc2N2CCC3(CC2)CC3)c1 [Example 100-11, N-(3-(N-isopropylsulfamoyl)phenyl)-2-(6-azaspiro[2.5]octan-6-yl)nicotinamide]	934
O=C(Nc1cccc(S(=O)(=O)C2CCC2)c1)c1cccnc1N1CCC2(CC1)CC2 [Example 100-24, N-(3-(cyclobutylsulfonyl)phenyl)-2-(6-azaspiro[2.5]octan-6-yl)nicotinamide]	923
CC(C)(C)NS(=O)(=O)c1cccc(NC(=O)c2ccc(N[C@@H]3CCOC3)nc2N2CCC3(CC2)CC3)c1 [Example 102-21, (R)-N-(3-(N-(tert-butyl)sulfamoyl)phenyl)-2-(6-azaspiro[2.5]octan-6-yl)-6-((tetrahydrofuran-3-yl)amino)nicotinamide]	134
